Experimental data as given in PMC5361737, “Potent and Selective KDM5 Inhibitor Stops Cellular Demethylation of H3K4me3 at Transcription Start Sites and Proliferation of MM1S Myeloma Cells” (Cell Chemical Biology, 2017).
Entries after “also recorded” stand apart in the source; their conditions may differ.

Tests used:
[1] = target: KDM3B (Homo sapiens, UniProt Q7LBC6); assay: 2-Oxoglutarate oxygenase assay panel, AlphaScreen assay; format: biochemical; details: ± SEM
[2] = target: T1, KDM2A (Homo sapiens, UniProt Q9Y2K7); assay: as above; format: biochemical; details: refers to Table S1
T1 sequence (Q9Y2K7 1-1162): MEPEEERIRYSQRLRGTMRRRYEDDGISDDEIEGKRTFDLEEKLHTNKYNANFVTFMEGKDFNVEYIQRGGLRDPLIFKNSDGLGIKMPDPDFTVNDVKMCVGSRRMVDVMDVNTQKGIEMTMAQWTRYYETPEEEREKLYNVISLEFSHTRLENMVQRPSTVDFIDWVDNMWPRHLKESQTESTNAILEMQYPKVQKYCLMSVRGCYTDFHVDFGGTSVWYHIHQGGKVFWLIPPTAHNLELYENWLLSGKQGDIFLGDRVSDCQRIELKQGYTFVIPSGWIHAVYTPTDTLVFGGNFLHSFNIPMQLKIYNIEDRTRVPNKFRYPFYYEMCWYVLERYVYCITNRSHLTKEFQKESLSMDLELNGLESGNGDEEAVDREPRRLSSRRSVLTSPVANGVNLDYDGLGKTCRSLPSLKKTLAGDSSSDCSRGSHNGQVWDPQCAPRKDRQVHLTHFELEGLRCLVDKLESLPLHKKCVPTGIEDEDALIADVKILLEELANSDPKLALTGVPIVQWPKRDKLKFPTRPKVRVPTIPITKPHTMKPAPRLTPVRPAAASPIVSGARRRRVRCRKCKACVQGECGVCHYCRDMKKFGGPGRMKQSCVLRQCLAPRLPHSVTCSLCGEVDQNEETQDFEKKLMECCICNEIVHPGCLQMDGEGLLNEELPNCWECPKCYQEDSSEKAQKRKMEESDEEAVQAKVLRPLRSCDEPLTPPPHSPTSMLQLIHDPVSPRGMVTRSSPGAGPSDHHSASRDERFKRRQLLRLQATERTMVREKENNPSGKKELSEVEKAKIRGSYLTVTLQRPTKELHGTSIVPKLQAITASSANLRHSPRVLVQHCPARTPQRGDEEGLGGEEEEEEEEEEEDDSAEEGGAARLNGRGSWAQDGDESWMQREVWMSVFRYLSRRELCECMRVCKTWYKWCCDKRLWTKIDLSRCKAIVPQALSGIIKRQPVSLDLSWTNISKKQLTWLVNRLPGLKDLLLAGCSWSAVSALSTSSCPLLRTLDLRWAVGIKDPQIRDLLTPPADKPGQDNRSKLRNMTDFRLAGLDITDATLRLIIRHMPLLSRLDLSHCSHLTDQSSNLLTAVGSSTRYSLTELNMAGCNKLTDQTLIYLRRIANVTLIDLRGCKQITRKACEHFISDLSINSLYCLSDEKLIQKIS

[3] = target: EGLN1 (Homo sapiens, UniProt Q9GZT9); assay: 2-Oxoglutarate oxygenase assay panel, MALDI-TOF assay; format: biochemical; details: read-out: pIC50 EGLN1 (converted)
[4] = tested on: other tested JmjC family members; assay: IF assay, HeLa cells overexpressing other JmjC family members; format: cell-based, human; details: overexpression IF assay, 24 hr
Text: The human cervical carcinoma cell line HeLa was obtained from the American Type Cultures Collection and maintained in Eagle's minimal essential media (Sigma-Aldrich) supplemented with 10% heat-inactivated fetal bovine serum (Life Technologies). Full-length cDNA for KDM5B (JARID1B, Q9UGL1, cDNA), KDM5C (JARID1C, P41229, IMAGE 5492114), KDM4B (JMJD2B, O94953, gift from ICR), KDM4C (JMJD2C, Q9H3R0, 8143862), KDM3A (JMJD1A, Q9Y4C1, 4823253), KDM2A (FBXL11, Q9Y2K7, 5534384), and KDM6B (JMJD3, O15054, cDNA) were amplified by PCR from either an MGC clone or a commercial cDNA source, or received as a gift from collaborators and cloned into pDONR-221 vector using Gateway BP reaction producing Gateway entry clones.
[…]. Mutations were introduced into full-length KDM Gateway entry clones using 15 cycles of the QuikChange II PCR protocol (Agilent Technologies). […]
In brief, cells were transiently transfected with either the FLAG-tagged WT or mutant demethylase described above, using Lipofectamine 2000 (Life Technologies). […] After the DAPI-stained nuclei were automatically identified, a minimum threshold for anti-FLAG intensity was set so that only cells highly expressing the demethylase were analyzed. […]

[5] = PAMPA; format: in vitro ADME
[6] = target: A1 (h) (Homo sapiens, UniProt P30542); assay: Cerep Express Panel, antagonist radioligand; format: binding; details: read-out: % Inhibition of reference (10 µM)
[7] = target: B2 (h) (Homo sapiens, UniProt P30411); assay: Cerep Express Panel, agonist radioligand; format: binding; details: read-out: % Inhibition of reference (10 µM)
[8] = tested on: GABA (non-selective); assay: Cerep Express Panel, agonist radioligand; format: binding
[9] = target: MC4 (h) (Homo sapiens, UniProt P32245); assay: Cerep Express Panel, agonist radioligand; format: binding; details: read-out: % Inhibition of reference (10 µM)
[10] = target: M2 (h) (Homo sapiens, UniProt P08172); assay: Cerep Express Panel, antagonist radioligand; format: binding; details: read-out: % Inhibition of reference (10 µM)
[11] = target: EP4 (h) (Homo sapiens, UniProt P35408); assay: Cerep Express Panel, agonist radioligand; format: binding; details: read-out: % Inhibition of reference (10 µM)
[12] = tested on: sst (non-selective); assay: Cerep Express Panel, agonist radioligand; format: binding; details: 10 µM
[13] = tested on: Cl- channel (GABA-gated); assay: Cerep Express Panel, antagonist radioligand; format: binding
[14] = target: KDM3A (Homo sapiens, UniProt Q9Y4C1); assay: 2-Oxoglutarate oxygenase assay panel, AlphaScreen assay
Chain of KDM3A (Q9Y4C1 whole entry): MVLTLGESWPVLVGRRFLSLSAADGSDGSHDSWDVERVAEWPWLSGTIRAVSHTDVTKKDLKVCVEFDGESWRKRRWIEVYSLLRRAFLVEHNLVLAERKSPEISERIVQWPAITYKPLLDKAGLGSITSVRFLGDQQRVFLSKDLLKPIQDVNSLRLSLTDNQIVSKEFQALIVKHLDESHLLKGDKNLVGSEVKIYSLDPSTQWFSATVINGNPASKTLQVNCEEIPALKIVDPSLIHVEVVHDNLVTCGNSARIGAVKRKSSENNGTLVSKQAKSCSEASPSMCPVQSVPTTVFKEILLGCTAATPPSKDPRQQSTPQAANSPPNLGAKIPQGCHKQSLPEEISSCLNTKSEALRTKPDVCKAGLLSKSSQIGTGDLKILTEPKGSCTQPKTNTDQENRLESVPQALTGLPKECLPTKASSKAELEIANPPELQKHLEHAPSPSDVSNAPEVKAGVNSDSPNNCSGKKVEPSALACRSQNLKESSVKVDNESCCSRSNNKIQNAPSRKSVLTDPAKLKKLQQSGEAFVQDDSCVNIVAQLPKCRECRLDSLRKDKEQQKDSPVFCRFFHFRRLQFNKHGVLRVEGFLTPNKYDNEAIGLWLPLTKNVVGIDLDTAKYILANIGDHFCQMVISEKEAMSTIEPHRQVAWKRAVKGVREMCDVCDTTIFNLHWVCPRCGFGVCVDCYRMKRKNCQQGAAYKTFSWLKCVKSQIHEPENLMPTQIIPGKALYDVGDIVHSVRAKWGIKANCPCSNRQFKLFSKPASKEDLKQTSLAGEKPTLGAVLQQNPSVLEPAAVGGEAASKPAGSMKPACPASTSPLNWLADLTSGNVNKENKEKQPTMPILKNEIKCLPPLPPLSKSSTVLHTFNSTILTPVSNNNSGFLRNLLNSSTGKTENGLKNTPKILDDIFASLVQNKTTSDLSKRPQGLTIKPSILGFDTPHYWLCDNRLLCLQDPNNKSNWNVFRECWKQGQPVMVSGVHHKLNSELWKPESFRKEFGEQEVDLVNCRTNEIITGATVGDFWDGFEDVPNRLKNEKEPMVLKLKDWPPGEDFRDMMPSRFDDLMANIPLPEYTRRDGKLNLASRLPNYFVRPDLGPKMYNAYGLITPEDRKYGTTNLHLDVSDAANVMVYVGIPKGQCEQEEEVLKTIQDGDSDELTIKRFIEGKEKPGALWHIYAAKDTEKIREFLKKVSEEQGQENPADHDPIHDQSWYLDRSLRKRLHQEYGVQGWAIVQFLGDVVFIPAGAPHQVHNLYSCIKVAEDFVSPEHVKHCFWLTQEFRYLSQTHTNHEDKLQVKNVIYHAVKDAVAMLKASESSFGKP

Chain of B2 (h) (P30411 whole entry): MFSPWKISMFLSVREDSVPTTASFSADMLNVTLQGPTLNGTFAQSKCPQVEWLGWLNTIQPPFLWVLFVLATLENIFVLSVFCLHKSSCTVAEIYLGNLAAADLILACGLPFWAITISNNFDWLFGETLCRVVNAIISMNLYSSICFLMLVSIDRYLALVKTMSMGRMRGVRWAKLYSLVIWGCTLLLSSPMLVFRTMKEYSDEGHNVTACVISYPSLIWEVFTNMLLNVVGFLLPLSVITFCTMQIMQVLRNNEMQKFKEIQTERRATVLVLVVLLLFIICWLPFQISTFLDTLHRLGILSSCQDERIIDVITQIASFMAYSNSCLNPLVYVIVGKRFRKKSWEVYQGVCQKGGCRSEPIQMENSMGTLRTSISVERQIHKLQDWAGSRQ
Chain of EGLN1 (Q9GZT9 whole entry, species assumed): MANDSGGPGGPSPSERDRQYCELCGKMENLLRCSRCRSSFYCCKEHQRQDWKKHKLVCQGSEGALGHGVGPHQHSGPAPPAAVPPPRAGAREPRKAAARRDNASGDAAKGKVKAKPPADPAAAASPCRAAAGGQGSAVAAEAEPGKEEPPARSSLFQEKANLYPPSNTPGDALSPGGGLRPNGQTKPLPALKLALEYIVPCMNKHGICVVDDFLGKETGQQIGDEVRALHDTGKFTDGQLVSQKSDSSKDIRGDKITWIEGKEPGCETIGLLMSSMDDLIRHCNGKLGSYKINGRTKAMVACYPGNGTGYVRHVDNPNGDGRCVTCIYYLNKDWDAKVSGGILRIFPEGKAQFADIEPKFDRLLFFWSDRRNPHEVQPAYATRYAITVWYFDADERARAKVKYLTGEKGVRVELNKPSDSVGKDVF
Chain of A1 (h) (P30542 whole entry): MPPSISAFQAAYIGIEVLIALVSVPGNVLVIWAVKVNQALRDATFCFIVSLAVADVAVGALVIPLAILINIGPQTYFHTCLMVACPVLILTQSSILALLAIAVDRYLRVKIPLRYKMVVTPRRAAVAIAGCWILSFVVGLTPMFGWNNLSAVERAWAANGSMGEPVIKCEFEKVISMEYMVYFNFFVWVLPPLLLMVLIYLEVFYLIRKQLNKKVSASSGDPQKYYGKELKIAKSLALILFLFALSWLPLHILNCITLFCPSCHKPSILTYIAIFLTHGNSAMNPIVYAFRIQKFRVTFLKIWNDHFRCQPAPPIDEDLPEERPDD
Chain of KDM3B (Q7LBC6 whole entry): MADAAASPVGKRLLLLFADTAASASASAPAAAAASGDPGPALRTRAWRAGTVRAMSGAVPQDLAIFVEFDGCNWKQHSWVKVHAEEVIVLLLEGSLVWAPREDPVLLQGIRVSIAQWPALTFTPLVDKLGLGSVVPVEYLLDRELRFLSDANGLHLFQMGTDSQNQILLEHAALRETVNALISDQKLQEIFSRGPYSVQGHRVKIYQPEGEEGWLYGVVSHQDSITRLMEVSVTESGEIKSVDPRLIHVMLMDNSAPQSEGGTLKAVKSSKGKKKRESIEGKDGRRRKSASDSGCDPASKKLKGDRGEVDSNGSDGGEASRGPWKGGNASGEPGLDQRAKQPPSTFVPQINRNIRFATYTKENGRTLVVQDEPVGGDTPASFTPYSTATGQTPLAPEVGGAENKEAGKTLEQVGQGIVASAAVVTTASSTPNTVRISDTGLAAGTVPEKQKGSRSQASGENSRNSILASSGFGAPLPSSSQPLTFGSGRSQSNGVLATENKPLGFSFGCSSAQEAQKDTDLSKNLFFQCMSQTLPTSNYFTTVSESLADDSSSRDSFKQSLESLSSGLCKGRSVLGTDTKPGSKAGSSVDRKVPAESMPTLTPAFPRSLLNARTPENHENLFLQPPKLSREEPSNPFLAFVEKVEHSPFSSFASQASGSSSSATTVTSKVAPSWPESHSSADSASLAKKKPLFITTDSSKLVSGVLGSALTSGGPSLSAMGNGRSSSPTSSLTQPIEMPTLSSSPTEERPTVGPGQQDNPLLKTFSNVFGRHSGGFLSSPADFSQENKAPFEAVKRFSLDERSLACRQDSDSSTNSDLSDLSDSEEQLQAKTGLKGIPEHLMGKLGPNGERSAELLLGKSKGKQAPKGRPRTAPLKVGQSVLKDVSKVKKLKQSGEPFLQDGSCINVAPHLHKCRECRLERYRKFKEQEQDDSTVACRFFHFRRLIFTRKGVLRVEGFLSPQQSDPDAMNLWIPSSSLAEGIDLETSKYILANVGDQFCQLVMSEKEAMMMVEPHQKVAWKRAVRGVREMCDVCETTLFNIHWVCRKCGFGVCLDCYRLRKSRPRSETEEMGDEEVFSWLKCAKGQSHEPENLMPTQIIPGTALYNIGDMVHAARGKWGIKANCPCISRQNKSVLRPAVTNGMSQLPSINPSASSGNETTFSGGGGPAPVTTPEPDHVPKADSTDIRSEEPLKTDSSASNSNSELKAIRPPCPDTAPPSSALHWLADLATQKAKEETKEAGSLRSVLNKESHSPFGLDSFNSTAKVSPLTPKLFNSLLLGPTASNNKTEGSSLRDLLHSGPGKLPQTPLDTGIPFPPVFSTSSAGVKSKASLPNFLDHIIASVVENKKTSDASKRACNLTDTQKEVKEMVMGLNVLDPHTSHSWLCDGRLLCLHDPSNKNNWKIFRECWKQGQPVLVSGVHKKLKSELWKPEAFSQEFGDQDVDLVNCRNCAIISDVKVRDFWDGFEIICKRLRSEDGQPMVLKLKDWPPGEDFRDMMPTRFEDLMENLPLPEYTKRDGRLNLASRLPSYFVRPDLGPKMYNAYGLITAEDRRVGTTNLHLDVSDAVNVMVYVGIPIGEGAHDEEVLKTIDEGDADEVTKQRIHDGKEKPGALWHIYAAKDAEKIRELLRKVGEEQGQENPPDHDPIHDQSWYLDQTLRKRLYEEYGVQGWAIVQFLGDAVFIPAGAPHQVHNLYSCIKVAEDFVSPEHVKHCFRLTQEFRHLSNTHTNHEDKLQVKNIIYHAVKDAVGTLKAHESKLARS
Chain of MC4 (h) (P32245 whole entry): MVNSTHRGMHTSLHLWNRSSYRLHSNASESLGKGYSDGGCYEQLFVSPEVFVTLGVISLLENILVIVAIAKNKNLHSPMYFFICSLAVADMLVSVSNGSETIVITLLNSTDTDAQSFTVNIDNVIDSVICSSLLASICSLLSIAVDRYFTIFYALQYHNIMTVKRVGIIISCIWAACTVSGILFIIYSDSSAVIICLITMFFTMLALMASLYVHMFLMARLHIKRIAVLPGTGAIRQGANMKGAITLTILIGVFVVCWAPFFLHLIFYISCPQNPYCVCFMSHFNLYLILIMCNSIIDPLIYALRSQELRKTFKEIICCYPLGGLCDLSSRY
Chain of M2 (h) (P08172 whole entry): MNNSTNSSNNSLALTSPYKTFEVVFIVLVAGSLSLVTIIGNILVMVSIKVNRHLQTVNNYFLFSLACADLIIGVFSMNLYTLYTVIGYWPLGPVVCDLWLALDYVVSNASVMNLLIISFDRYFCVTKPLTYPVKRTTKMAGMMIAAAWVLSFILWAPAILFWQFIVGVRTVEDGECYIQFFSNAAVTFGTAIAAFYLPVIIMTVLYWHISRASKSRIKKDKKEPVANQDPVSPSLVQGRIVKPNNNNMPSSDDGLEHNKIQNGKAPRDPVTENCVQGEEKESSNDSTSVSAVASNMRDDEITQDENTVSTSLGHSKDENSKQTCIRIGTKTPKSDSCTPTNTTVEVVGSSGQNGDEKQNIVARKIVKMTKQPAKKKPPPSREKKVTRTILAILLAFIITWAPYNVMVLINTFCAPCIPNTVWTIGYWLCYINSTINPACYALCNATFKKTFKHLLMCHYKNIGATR

## CCN(CCN(C)C)C(=O)CNCc1cc(C(N)=O)ccn1 [KDOAM-25]
[1]
  pIC50 KDM3 B: 4.1 ± 0.65
[2]
  KDM2A IC50: 4.4 µM
[3]
  IC50: > 100 µM
[4]
  cellular activity on other tested JmjC family members: no cellular activity; also recorded: no effect
[5]; pH 5
  PAMPA pH 5: < 0.3
[5]; pH 6.5
  PAMPA pH 6.5: < 0.23
[5]; pH 7.4
  PAMPA pH 7.4: < 0.23
[6]
  inhibition at 10 µM: -3%
[7]
  inhibition at 10 µM: -10%
[8]
  % Inhibition of reference (10 µM): -4%
[9]
  inhibition at 10 µM: 5%
[10]
  inhibition at 10 µM: -3%
[11]
  inhibition at 10 µM: -15%
[12]
  % Inhibition of reference (10 µM): 0%
[13]
  % Inhibition of reference (10 µM): -2%
[14]
  IC50: 31.6 µM
